Columns and labels:
Format in all cases: physicochemical
[1] = Method B: solubility of active ingredient in solvent by visual evaluation of a concentration ladder; details: Method B (visual, 24 hours, 21° C.); for Active Ingredient Solubility: 2,4-D Acid: 2,4-dichlorophenoxyacetic acid dissolved in the named solvent; for Active Ingredient Solubility: MCPA: 2-methyl-4-chlorophenoxyacetic acid dissolved in the named solvent; for Active Ingredient Solubility: NBPT: N-(n-butyl)thiophosphoric triamide dissolved in the named solvent; for Active Ingredient Solubility: Bifenthrin: bifenthrin dissolved in the named solvent; for Active Ingredient Solubility: Tebuconazole: tebuconazole dissolved in the named solvent
Protocol: (§1) The solubilities of active ingredients in the Ether Ketone Solvents and Comparative Solvents are determined on a saturated solution of a given active ingredient in a given solvent using NMR spectroscopy (Method A, as described below), or by visual evaluation of a concentration ladder of a given active ingredient in a given solvent (Method B, as described below).
(§2) [formula] When possible, several well-resolved peaks are used for both solvent and active ingredient, and averaged to provide an estimation of variability in the measurement. Method B: Solubility Determination by Visual Evaluation
Four-milliliter (mL) vials are charged with active ingredient (10 to 50 wt %), a stir bar, and solvent (90 to 50 wt %). The vials are capped and taped to seal. The vials are secured in a vial rack and shaken on a laboratory shaker for 24 hours at ambient lab temperature of 21° C. and 51% humidity. After 24 hours each sample set is evaluated for solubility of solid.

[2] = Method A: solubility of active ingredient in solvent by NMR spectroscopy of a saturated solution; details: for Active Ingredient Solubility: Dicamba Acid: dicamba acid dissolved in the named solvent; for Active Ingredient Solubility: Nitrapyrin: nitrapyrin dissolved in the named solvent; for Active Ingredient Solubility: 2,4-D Acid: 2,4-dichlorophenoxyacetic acid dissolved in the named solvent; for Active Ingredient Solubility: MCPA: 2-methyl-4-chlorophenoxyacetic acid dissolved in the named solvent; for Active Ingredient Solubility: NBPT: N-(n-butyl)thiophosphoric triamide dissolved in the named solvent; for Active Ingredient Solubility: Bifenthrin: bifenthrin dissolved in the named solvent; for Active Ingredient Solubility: Tebuconazole: tebuconazole dissolved in the named solvent
Protocol: as §1
Method A: Solubility Determination by NMR Spectroscopy
A saturated solution of a given active ingredient in a solvent is prepared by initially combining the active ingredient (0.8 g) and solvent (1.5 mL) in a vial and stirring vigorously for at least 24 hours. If a homogeneous solution is obtained, additional active ingredient is added until a significant amount of solid remains out of solution. The mixtures (˜0.25 mL) are then filtered with a PTFE syringe filter (0.45 μm) into an NMR tube that contained C6D6 (0.5 mL). The NMR tubes are capped and analyzed on Varian 400 NMR spectrometer equipped with an auto sampler. Proton NMR spectra are referenced to the residual proton peak in the deuterated solvent. Spectra used for quantitation are collected with a 180 second delay between pulses. Spectra are processed in MestReNova (version 11.0.4-18998) by baseline (Bernstein Polynomials) and phase correcting each spectrum followed by integration of all well-resolved solvent and active resonances. Active ingredient weight percentages are estimated by the following formula:
as §2

[3] = Solubility of water in Ether Ketone Solvent (dropwise addition, weighing); details: water in dried solvent; lab temperature 30° C.
Protocol: (§3) The solubilities of water in certain of the Ether Ketone Solvents are also evaluated. A vial is charged with 5 grams of the specified solvent, and 3 Å activated molecular sieves (˜300 mg) are added. The vial is capped and the solvent left to dry for several days. The mixtures are filtered using a 0.2 μm syringe filter into a tared 20 mL vial and the weights are noted. Water is then added using a 10 μL syringe until the mixture appeared to have water droplets on the bottom of the vial. The mixture is weighed again and the weight percent solubility of water in the Ether Ketone solvent is calculated. The temperature in the lab is 30° C. at the time of the water solubility measurements.

[4] = Solubility of Ether Ketone Solvent in water (dropwise addition, weighing); details: lab temperature 30° C.
Protocol: The solubilities of certain of the Ether Ketone Solvents in water are determined by adding water (˜10 to 50 grams) to a tared vial equipped with a stir bar. The weights of water are noted. The specified solvent is added dropwise using a 10 μL syringe until the mixture appeared to have solvent droplets suspended in the water. The mixture is weighed again and the weight percent solubility of the Ether Ketone Solvent in water is calculated.
as §3

Compound	Active Ingredient Solubility: 2,4-D Acid [1]	Active Ingredient Solubility: MCPA [1]	Active Ingredient Solubility: NBPT [1]	Active Ingredient Solubility: Bifenthrin [1]	Active Ingredient Solubility: Tebuconazole [1]	Active Ingredient Solubility: Dicamba Acid [2]	Active Ingredient Solubility: Nitrapyrin [2]	Solubility Water In [3]	Solubility In Water [4]	Active Ingredient Solubility: 2,4-D Acid [2]	Active Ingredient Solubility: MCPA [2]	Active Ingredient Solubility: NBPT [2]	Active Ingredient Solubility: Bifenthrin [2]	Active Ingredient Solubility: Tebuconazole [2]
CC(=O)c1ccccc1 [Acetophenone]	<30 wt %	<30 wt %	<30 wt %	<50 wt %	<30 wt %	49.8 wt %	55.4 wt %							
CCCCOCC(=O)CC [BnB Ketone, 1-Butoxy-2-butanone]						48.9 wt %	55.0 wt %	0.11 wt %	0.43 wt %	15.6 wt %	21.6 wt %	21.0 wt %	42.6 wt %	16.9 wt %
CCCCCCOCC(=O)CC [BnH Ketone, 1-Hexyloxy-2-butanone]						42.5 wt %	46.2 wt %	0.02 wt %	0.22 wt %	12.8 wt %	17.5 wt %	13.6 wt %	37.3 wt %	13.5 wt %
CCCCCCCCOCC(=O)CC [BnO Ketone, 1-Octyloxy-2-butanone]						36.5 wt %	41.6 wt %			10.2 wt %	15.3 wt %	10.0 wt %	33.9 wt %	12.0 wt %
O=C1CCCCC1 [Cyclohexanone]	<40 wt %	<50 wt %	<50 wt %	Sol. at 50 wt %	<50 wt %	62.4 wt %	65.2 wt %							
CCCCOCC(CC)OCC(=O)CC (stereo not drawn) [DBnB Ketone, 1-((1-Butoxy-2-butanyl)oxy)-2-butanone]						45.6 wt %	42.6 wt %			13.2 wt %	17.1 wt %	15.7 wt %	34.7 wt %	10.5 wt %
CCCCCCOCC(CC)OCC(=O)CC (stereo not drawn) [DBnH Ketone, 1-((1-(Hexyloxy)-2-butanyl)oxy)-2-butanone]						42.5 wt %	39.8 wt %			10.9 wt %	17.2 wt %	10.5 wt %	33.8 wt %	11.2 wt %
CCCCOCC(C)OCC(C)=O (stereo not drawn) [DPnB Ketone, 1-((1-(Butoxy)-2-propanyl)oxy)-2-propanone]						52.7 wt %	45.4 wt %	0.03 wt %	0.20 wt %	18.3 wt %	23.7 wt %	25.5 wt %	33.4 wt %	15.0 wt %
CCCCCCOCC(C)OCC(C)=O (stereo not drawn) [DPnH Ketone, 1-((1-(Hexyloxy)-2-propanyl)oxy)-2-propanone]						48.4 wt %	39.0 wt %	0.03 wt %	0.22 wt %	16.4 wt %	22.1 wt %	25.3 wt %	35.5 wt %	12.5 wt %
CCCCCOCC(C)OCC(C)=O (stereo not drawn) [DPnPent Ketone, 1-((1-(Pentyloxy)-2-propanyl)oxy)-2-propanone]						48.7 wt %	41.8 wt %			15.0 wt %	22.0 wt %	24.4 wt %	31.8 wt %	12.0 wt %
CCCCOCC(C)=O [PnB Ketone, 1-Butoxy-2-propanone]						54.0 wt %	53.4 wt %	0.005 wt %	0.20 wt %	20.2 wt %	26.8 wt %	32.8 wt %	43.3 wt %	25.1 wt %
CCCCCCCCOCC(C)=O [PnO Ketone, 1-Octyloxy-2-propanone]						40.6 wt %	42.9 wt %			12.6 wt %	17.1 wt %	15.9 wt %	35.4 wt %	12.5 wt %
CCCCCOCC(C)=O [PnPent Ketone, 1-Pentyloxy-2-propanone]						49.1 wt %	49.0 wt %			17.3 wt %	22.9 wt %	24.2 wt %	40.2 wt %	16.7 wt %
CCCCOCC(C)OCC(C)OCC(C)=O (stereo not drawn) [TPnB Ketone, 1-((1-((1-Butoxy-2-propanyl)oxy)-2-propanyl)oxy)-2-propanone]						49.7 wt %	37.0 wt %			16.3 wt %	22.5 wt %	22.1 wt %	13.0 wt %	10.8 wt %
